Active and inactive are the calls of the source. No rule for the calls is given here.
Molecular target: glucose-6-phosphate dehydrogenase-6-phosphogluconolactonase (Plasmodium falciparum 3D7)
Assay: PfG6PD enzyme inhibitors, direct NADPH readout, dose response, orthogonal assay, biochemical, end-point NADPH detection (AID 540252)
Conditions: purified PfG6PD enzyme

SMILES	IC50
O=C(CNC(=O)c1ccco1)OCC(=O)c1ccc([N+](=O)[O-])cc1	48.4 µM
O=[N+]([O-])c1cnc(Sc2ccncn2)c([N+](=O)[O-])c1	49.3 µM
c1cncc(CNc2ccc3c(c2)OCO3)c1	> 80 µM (inactive)
O=C(CCC(=O)OCC(=O)c1ccc([N+](=O)[O-])cc1)Nc1ccccc1Cl	53 µM
COc1cc(O)c(C(=O)O)c(-c2cc(O)c(O)cc2C)c1	> 80 µM (inactive)
O=C1C=CC(=O)N1CCNc1ncc(C(F)(F)F)cc1Cl	65.4 µM
CCOc1ccc(S(=O)(=O)Nc2cc(SCC(=O)O)c(O)c3ccccc23)cc1	> 80 µM (inactive)
CCOC(=O)Nc1ccc(NCc2ccc(F)cc2)nc1N	> 80 µM (inactive)
O=C(CN1C(=O)C2C3C=CC(C3)C2C1=O)OCC(=O)c1ccc([N+](=O)[O-])cc1 (stereo unspecified)	56.7 µM
O=[N+]([O-])c1ccc(Sc2cccc3cccnc23)c2cccnc12	> 80 µM (inactive)
O=C(Nc1nnc(S(=O)(=O)N2CCOCC2)s1)c1cccc(Br)c1	> 80 µM (inactive)
O=S(=O)(Nc1ccccc1F)c1cccc(NC(=S)NCCN2CCOCC2)c1	71.2 µM
COc1cc(NCc2ccccc2)c2ncn(C(C)C)c2c1	> 80 µM (inactive)
CC1(OC(=O)C2CCCC2)C(=O)C=C2C=C(c3ccsc3)N(Cc3ccc4c(c3)OCO4)C=C2C1=O (stereo unspecified)	> 80 µM (inactive)
CCNc1ccccc1CP(=O)(c1ccccc1)c1ccccc1O (stereo unspecified)	> 80 µM (inactive)
CCOc1ccc(CNc2ccc(N3CCCC3)cc2)cc1	> 80 µM (inactive)
CN1CCN(C(=S)c2ccc(Br)cc2)CC1	> 80 µM (inactive)
CCOC(=O)C1CCCN(C(=O)Cn2sc3nc(C)cc(C)c3c2=O)C1 (stereo unspecified)	> 80 µM (inactive)
CCOc1ccccc1C=NNC(=O)CCCCC(=O)NN=Cc1ccccc1OCC	> 80 µM (inactive)
CC1(C)Cc2c(sc3nc4n(-c5ccccc5)c(=O)c(CCC(=O)O)nn4c(=O)c23)CO1	8.84 µM
CCOc1ccc2ccccc2c1/C=N/NC(=O)c1ccncc1	> 80 µM (inactive)
Cc1ccc(NC2=C(NC(=O)c3ccccc3)C(=O)c3ccccc3C2=O)cc1Cl	> 80 µM (inactive)
CCOc1ccc(NC(=O)Cn2sc3nc(C)cc(C)c3c2=O)cc1	> 80 µM (inactive)
O=C(O)c1cccc(N2C(=O)C=CC2=O)c1	67.4 µM
CC(NC(=O)c1sc2cc([N+](=O)[O-])ccc2c1Cl)C(C)(C)C (stereo unspecified)	> 80 µM (inactive)
CC(=O)OCCCNc1cc(Sc2nc3ccccc3s2)c2nonc2c1[N+](=O)[O-]	> 80 µM (inactive)

SMILES	IC50
N#C/C(C(=O)Nc1ccc(Cl)cc1)=C(/S)Nc1ccccc1	> 80 µM (inactive)
Clc1ccc(N=c2ssnc2Cl)nc1	> 80 µM (inactive)
Cc1ccc(NS(=O)(=O)c2ccccc2Cl)c2c1CC(C)(C)O2	> 80 µM (inactive)
Cc1cc(C(=O)O)ccc1-n1c(C)cc(C=C2C(=O)c3ccccc3C2=O)c1C	> 80 µM (inactive)
CC(NC1=CC(=O)c2cccnc2C1=O)C(O)c1ccccc1 (stereo unspecified)	> 80 µM (inactive)
Fc1cccc(Cl)c1CNc1ccc(N2CCCC2)cc1	> 80 µM (inactive)
CN(C)c1ccc2nc3ccc(=O)cc-3sc2c1	> 80 µM (inactive)
COc1cc(N=c2ssnc2Cl)cc(OC)c1	72.6 µM
COc1ccc2nc3cc(Cl)ccc3c(Nc3ccc(O)c(CN4CCN(C)CC4)c3)c2c1	> 80 µM (inactive)
Cc1ccc(/C=C/C(=O)N2CCN(S(=O)(=O)c3ccc(C)c(C)c3)CC2)o1	> 80 µM (inactive)
OCc1ccccc1SSc1ccccc1CO	56.2 µM
CN(C)Cc1cc(O)c(CN(C)C)cc1O	> 80 µM (inactive)
O=C(CNc1ccc2c(c1)OCO2)N/N=C\c1cn(Cc2ccccc2)c2ccccc12	> 80 µM (inactive)
CC1(OC(=O)C2CCCC2)C(=O)C=C2C=C(c3ccsc3)N(CCc3c[nH]c4ccccc34)C=C2C1=O (stereo unspecified)	> 80 µM (inactive)
CCn1c(N)c(C(=O)NC)sc1=S	> 80 µM (inactive)
O=C(CCSCCC(=O)NN=Cc1ccccc1)NN=Cc1ccccc1	> 80 µM (inactive)
COc1ccc(CCn2c(NN=C3CCCC3)nc3c2c(=O)[nH]c(=O)n3C)cc1	> 80 µM (inactive)
CCN(CC)c1ccc(C(=C2C=CC(=[N+](CC)CC)C=C2)c2ccccc2)cc1	> 80 µM (inactive)
Cc1ccc(-c2nc(N)s[n+]2-c2ccccc2)cc1	60.3 µM
O=C(Nc1ccc(N2CCN(C(=O)c3ccco3)CC2)c(Cl)c1)c1cc2ccccc2o1	> 80 µM (inactive)
O=C1Nc2cc(C(=O)NCCCN3CCCC3)ccc2S/C1=C\c1ccccc1	> 80 µM (inactive)
C[c-]1[c-](C)[c-](C)[c-](C)[c-]1C.[Fe].c1cc2nccc(N3CCCC3)[c-]2c1 (stereo unspecified)	> 80 µM (inactive)
O=C1OC(c2ccc3ccccc3c2O)(c2ccc3ccccc3c2O)c2ccccc21	> 80 µM (inactive)
COCCn1nnnc1C(c1cc2cc(OC)c(OC)cc2[nH]c1=O)N1CCN(c2ccc(O)cc2)CC1 (stereo unspecified)	> 80 µM (inactive)
C[C@H](NC(=O)c1cc2c(cn1)[nH]c1ccccc12)C(=O)O	> 80 µM (inactive)
C=CCc1c(C)[nH]c(=S)c(C#N)c1C	> 80 µM (inactive)

SMILES	IC50
Cc1ccc(/C=C/C(=O)NCC2COc3ccccc3O2)o1 (stereo unspecified)	> 80 µM (inactive)
COC1=C(OC)C(=O)C(Sc2ccc3ccccc3c2)=CC1=O	30.2 µM
CCC(C)N(CCNC(=O)c1ccc2c(c1)NC(=O)c1ccccc1S2)C1CCCCC1 (stereo unspecified)	6.49 µM
CCN(CC)c1ccc(NC(=O)c2ccccc2Br)cc1S(=O)(=O)Nc1ccccc1OC	> 80 µM (inactive)
Cc1cccc(C(=O)Nc2nnc(S(=O)(=O)N3CCOCC3)s2)c1	> 80 µM (inactive)
Cc1nc2c(o1)C(=O)c1ccccc1C2=Nc1ccccc1	> 80 µM (inactive)
CN(CCO)c1cc(Sc2nc3ccccc3s2)c2nonc2c1[N+](=O)[O-]	24 µM
COc1ccc(C(=O)c2c(C(F)(F)F)oc3c2C(=O)c2ccccc2C3=O)cc1	> 80 µM (inactive)
Cc1ccsc1/C=N\NC(=O)CC(=O)NCc1ccccc1	> 80 µM (inactive)
CC1(OC(=O)C2CCCC2)C(=O)C=C2C=C(c3ccsc3)N(CC3CC3)C=C2C1=O (stereo unspecified)	> 80 µM (inactive)
COc1cc(/C=C2\CC/C(=C\c3cc(OC)c(O)c(OC)c3)C2=O)cc(OC)c1O	> 80 µM (inactive)
N#CC1=C(N)Oc2c(O)cc3ccccc3c2C1c1ccsc1 (stereo unspecified)	> 80 µM (inactive)
CC1=CC(C)(C)Nc2ccc(OC(=O)CN3C(=O)CCC3=O)cc21	> 80 µM (inactive)
CC(=O)Nc1cc([N+](=O)[O-])ccc1OCc1ccccc1	> 80 µM (inactive)
Cc1ccc(-c2c(C(=O)N/N=C/c3cccs3)nnn2-c2nonc2N)cc1	> 80 µM (inactive)
Cc1ccc(-c2nc(N3CCOCC3)s[n+]2-c2ccccc2)cc1	> 80 µM (inactive)
CCOc1ccc(N(CC(=O)N/N=C/c2cc([N+](=O)[O-])ccc2Cl)S(C)(=O)=O)cc1	> 80 µM (inactive)
Cc1ccccc1N/C(SCc1cccc(Br)c1)=C(/C#N)C(N)=O	> 80 µM (inactive)
O=c1c2cc(C(F)(F)F)ccc2sn1-c1ccccc1	26.2 µM
CCOc1ccc(Cl)cc1/C=N/NC(N)=O	> 80 µM (inactive)
CCN(CC)c1ccc(C(=C2C=CC(=[N+](CC)CC)C=C2)c2ccc(N(CC)CC)cc2)cc1	39.6 µM
CCC(C)c1ccccc1OCCn1ccnc1 (stereo unspecified)	> 80 µM (inactive)
O=C(CN1CCN(c2ccc(O)cc2)CC1)Nc1cc(S(=O)(=O)N2CCOCC2)ccc1Cl	> 80 µM (inactive)
COc1ccc(-c2cn3cc(C)ccc3n2)cc1Br	> 80 µM (inactive)
COc1cc(/C=C2\SC(c3ccc(C)cc3)=NC2=O)ccc1O	> 80 µM (inactive)
CC1N(C)c2cccc3cccc(c23)N1C	> 80 µM (inactive)

SMILES	IC50
COc1ccc2c(c1)c(=Cc1ccc(N(C)C)cc1)c1cc(-c3ccccc3)[n+](C)n12	> 80 µM (inactive)
Cc1c(Cl)c([N+](=O)[O-])nn1Cc1ccc(C(=O)N/N=C\c2cccc(Br)c2)o1	> 80 µM (inactive)
O=C1Nc2cc(C(=O)NCCCN3CCCC3)ccc2S/C1=C/c1cccc(Cl)c1	> 80 µM (inactive)
COc1ccc(C(=O)/C=C2\Sc3ccccc3N2C)cc1	> 80 µM (inactive)
O=C(Nc1nnc(S(=O)(=O)N2CCCC2)s1)c1cccc([N+](=O)[O-])c1	> 80 µM (inactive)
O=c1[nH]nc(CNc2ccc(O)cc2)c2ccccc12	> 80 µM (inactive)
Cc1cc(C)c[n+](C2=C([O-])c3ccccc3C(=O)/C2=N\S(=O)(=O)c2cccs2)c1	> 80 µM (inactive)
CCc1cc(-c2n[nH]c(C)c2-c2nc3ccccc3n2C)c(O)cc1O	> 80 µM (inactive)
CC(Cc1ccc(O)c(O)c1)C(C)Cc1ccc(O)c(O)c1 (stereo unspecified)	68.4 µM
COc1cc(/C=C2\SC(c3ccc(C)cc3)=NC2=O)cc(OC)c1O	> 80 µM (inactive)
CCSc1nc2cc(S(=O)(=O)N3CCOCC3)ccc2o1	> 80 µM (inactive)
CCN(CC)C(=S)SSC(=S)N(CC)CC	> 80 µM (inactive)
COC1(OC)C=CC(=O)C=C1NC(=O)c1ccccc1OC(C)=O	> 80 µM (inactive)
CC(C)(C)c1ccc(O)c(O)c1	54.8 µM
Cc1ccc2nc(-c3ccc(NC(=S)NC4CC(C)(C)NC(C)(C)C4)cc3)sc2c1	> 80 µM (inactive)
COc1ccc(/C=C/c2nc3ccccc3n2C)cc1	> 80 µM (inactive)
O=c1c2ccccc2sn1-c1ccccc1	7.9 µM
C[C@H](NC(N)=O)C(=O)Nc1ccc(N2CCOCC2)c(S(=O)(=O)Nc2ccc(Cl)cc2)c1	> 80 µM (inactive)
Nn1c(CSc2nc3ccccc3o2)nnc1CSc1nc2ccccc2o1	> 80 µM (inactive)
O=C1C=CC2=C3c4cc(O)c(O)cc4CC3(O)COC2=C1O (stereo unspecified)	> 80 µM (inactive)
COc1ccc2ccccc2c1C1CC(=O)N2CN(C3CCCCC3)CSC2=C1C#N (stereo unspecified)	> 80 µM (inactive)
COc1ccccc1NS(=O)(=O)c1cc(NC(=O)c2ccc(Cl)nc2)ccc1N1CCCC1	> 80 µM (inactive)
COc1ccc(CN(C)S(=O)(=O)c2nnc(NC(=O)c3ccc(C)cc3)s2)cc1OC	> 80 µM (inactive)

Reference: PubChem BioAssay AID540252 (Sanford-Burnham Center for Chemical Genomics, 2011)
